According to ChEMBL document CHEMBL5120862, “Novel non-covalent LSD1 inhibitors endowed with anticancer effects in leukemia and solid tumor cellular models” (Eur J Med Chem, 2022):
Activity calls are given as the source filed them. The rule behind the calls is not given here.

Legend:
[1] = target: T1, Histone-lysine N-methyltransferase EHMT2 (Homo sapiens, UniProt Q96KQ7); assay: Inhibition of G9a (unknown origin) assessed as reduction in substrate methylation using histone H3 and SAM as substrate measured after 15 to 60 mins by microfluidic capillary electrophoresis analysis
T1 sequence (Q96KQ7 whole entry): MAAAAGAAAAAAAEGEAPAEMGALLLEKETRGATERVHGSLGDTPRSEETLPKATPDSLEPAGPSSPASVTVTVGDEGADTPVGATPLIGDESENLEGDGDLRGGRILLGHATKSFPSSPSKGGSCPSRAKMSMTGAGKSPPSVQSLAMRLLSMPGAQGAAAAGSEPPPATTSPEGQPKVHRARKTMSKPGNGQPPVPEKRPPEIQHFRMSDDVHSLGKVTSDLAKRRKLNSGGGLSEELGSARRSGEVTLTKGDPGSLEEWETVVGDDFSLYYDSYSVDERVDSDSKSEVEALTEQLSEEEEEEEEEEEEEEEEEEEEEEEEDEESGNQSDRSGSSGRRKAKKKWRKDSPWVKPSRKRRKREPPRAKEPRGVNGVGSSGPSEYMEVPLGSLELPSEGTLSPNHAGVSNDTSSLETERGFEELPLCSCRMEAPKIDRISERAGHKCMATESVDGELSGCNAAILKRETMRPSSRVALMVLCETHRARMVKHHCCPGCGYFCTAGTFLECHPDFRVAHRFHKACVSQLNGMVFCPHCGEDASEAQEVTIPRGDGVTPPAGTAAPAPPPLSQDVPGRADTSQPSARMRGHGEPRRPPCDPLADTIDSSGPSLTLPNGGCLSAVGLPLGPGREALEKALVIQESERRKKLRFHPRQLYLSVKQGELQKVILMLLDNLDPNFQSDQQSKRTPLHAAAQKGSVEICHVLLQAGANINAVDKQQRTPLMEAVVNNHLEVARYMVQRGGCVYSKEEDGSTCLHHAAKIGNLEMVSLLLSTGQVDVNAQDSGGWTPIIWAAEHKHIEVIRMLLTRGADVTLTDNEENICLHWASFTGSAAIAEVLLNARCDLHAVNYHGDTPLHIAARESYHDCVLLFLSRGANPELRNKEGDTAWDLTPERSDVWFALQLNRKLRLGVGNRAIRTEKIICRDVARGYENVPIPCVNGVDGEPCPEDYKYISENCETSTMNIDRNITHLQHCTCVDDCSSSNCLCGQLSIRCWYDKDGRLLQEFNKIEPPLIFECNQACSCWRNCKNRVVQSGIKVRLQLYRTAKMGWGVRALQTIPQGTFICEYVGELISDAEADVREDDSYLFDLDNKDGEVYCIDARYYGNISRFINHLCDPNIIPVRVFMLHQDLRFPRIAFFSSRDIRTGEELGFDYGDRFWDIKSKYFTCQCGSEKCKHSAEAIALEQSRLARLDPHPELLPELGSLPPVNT

[2] = target: T2, LSD1/CoREST complex (Homo sapiens, UniProt O60341); assay: Inhibition of human LSD1/CoREST using histone H3 peptide as substrate by fluorescence polarization assay; format: protein-complex assay
[3] = target: T2, LSD1/CoREST complex; assay: Binding affinity to human LSD1/CoREST assessed as dissociation constant by competitive fluorescence polarization assay; format: protein-complex assay
[4] = test system: THP-1; assay: Antiproliferative activity against human THP-1 cells assessed as inhibition of cell growth incubated for 24 hrs by CellTiter-Glo luminescent cell viability assay; format: functional, cell-based; details: THP-1, 24 h
[5] = test system: THP-1; assay: Antiproliferative activity against human THP-1 cells assessed as inhibition of cell growth incubated for 144 hrs by CellTiter-Glo luminescent cell viability assay; format: functional, cell-based; details: THP-1, 144 h
[6] = test system: MDA-MB-231; assay: Antiproliferative activity against human MDA-MB-231 cells assessed as inhibition of cell growth measured after 72 hrs by MTT assay; format: functional, cell-based; details: MDA-MB-231, 72 h
[7] = test system: THP-1; assay: Antiproliferative activity against human THP-1 cells assessed as inhibition of cell growth incubated for 72 hrs by CellTiter-Glo luminescent cell viability assay; format: functional, cell-based; details: THP-1, 72 h
[8] = Cytotoxicity against human AHH-1 cells assessed as residual cell viability at 1 uM measured after 72 hrs by MTT assay relative to control; format: toxicity, cell-based; details: read-out: Activity
[9] = test system: MV4-11; assay: Induction of apoptosis in human MV4-11 cells assessed as accumulation of cells at sub-G1 phase incubated for 24 hrs; format: functional, cell-based; details: dose 0.2-25 µM, DDE = dose-dependent effect
[10] = test system: MV4-11; assay: Induction of cell cycle arrest in human MV4-11 cells assessed as accumulation of cells at G1 phase at 0.2 to […] incubated for 24 hrs; format: functional, cell-based; details: dose 0.2-2.5 µM
[11] = Cytotoxicity against HMEC cells assessed as residual cell viability at 1 uM incubated for 72 hrs by MTT assay relative to control; format: toxicity, cell-based; details: human, read-out: Activity
[12] = test system: MV4-11; assay: Antiproliferative activity against human MV4-11 cells assessed as inhibition of cell growth at […] incubated for 72 to 144 hrs by trypan blue staining based analysis; format: functional; details: dose 2.5 µM, time 72-144 hrs
[13] = target: Lysine-specific histone demethylase 1A (Homo sapiens) (UniProt O60341); assay: Inhibition of LSD1 in human MV4-11 cells assessed as increase in H3K4me2 level at 0.2 to […] incubated for 24 hrs by Western blot analysis; format: cell-based; details: dose 0.2-2.5 µM
[14] = target: Lysine-specific histone demethylase 1A (Homo sapiens) (UniProt O60341); assay: Inhibition of LSD1 in human MV4-11 cells assessed as increase in CD86 expression level incubated for 24 hrs by qRT-PCR analysis; format: cell-based; details: dose 0.2-1 µM
[15] = target: Lysine-specific histone demethylase 1A (Homo sapiens) (UniProt O60341); assay: Inhibition of LSD1 in human RD cells assessed as increase in H3K4me2 level at 1 uM incubated for 48 hrs by Western blot analysis; format: cell-based
[16] = test system: SJRH30; assay: Antiproliferative activity against human Rh30 cells assessed as inhibition of cell growth incubated for 72 hrs; format: functional, cell-based; details: SJRH30, 72 h
[17] = test system: SJRH30; assay: Induction of apoptosis in human Rh30 cells assessed as increase in caspase 3/7 level at 2 uM incubated for 24 hrs; format: functional, cell-based
[18] = test system: RD; assay: Antiproliferative activity against human RD cells assessed as reduction in live cells at 2 uM incubated for 72 hrs by calceinAM/propidium iodide staining based fluorescence microscopy; format: functional, cell-based
[19] = test system: RD; assay: Induction of apoptosis in human RD cells assessed as increase in caspase 3/7 level at 2 uM incubated for 24 hrs; format: functional, cell-based
[20] = test system: RD; assay: Antiproliferative activity against human RD cells assessed as inhibition of cell growth incubated for 144 hrs; format: functional, cell-based
[21] = test system: SJRH30; assay: Antiproliferative activity against human Rh30 cells assessed as inhibition of cell growth incubated for 144 hrs; format: functional, cell-based; details: SJRH30, 144 h
[22] = test system: RD; assay: Antiproliferative activity against human RD cells assessed as inhibition of cell growth incubated for 72 hrs; format: functional, cell-based
[23] = test system: SJRH30; assay: Antiproliferative activity against human Rh30 cells assessed as reduction in live cells at 2 uM incubated for 24 hrs by calceinAM/propidium iodide staining based fluorescence microscopy; format: functional, cell-based
[24] = Cytotoxicity against human derived mesenchymal stem cells assessed as residual cell viability at 1.25 uM measured after 72 hrs relative to control; format: toxicity, cell-based; details: read-out: Activity
[25] = test system: SJRH30; assay: Antiproliferative activity against human Rh30 cells assessed as inhibition of cell growth incubated for 24 hrs; format: functional, cell-based; details: SJRH30, 24 h
[26] = test system: RD; assay: Antiproliferative activity against human RD cells assessed as inhibition of cell growth incubated for 24 hrs; format: functional, cell-based
[27] = target: Lysine-specific histone demethylase 1A (Homo sapiens) (UniProt O60341); assay: Inhibition of LSD1 in human Rh30 cells assessed as increase in H3K4me2 level at 1 uM incubated for 48 hrs by Western blot analysis; format: cell-based

Compound: COc1cc2nc(NCCCN3CCCCC3)nc(NC3CCN(Cc4ccccc4)CC3)c2cc1OC
- Ki [1]: 3260 nM
- Ki [2]: 170 nM
- Kd [3]: 68 nM

Compound: COc1cc2nc(NCCCN(C)C)nc(N(C)C3CCN(Cc4ccccc4)CC3)c2cc1OC
- IC50 [4]: 670 nM
- IC50 [5]: 300 nM
- Ki [1]: > 100000 nM
- Ki [2]: 569 nM
- IC50 [6]: 2380 nM
- Kd [3]: 356 nM
- IC50 [7]: 430 nM

Compound: COc1cc2nc(NCCCN(C)C)nc(OC3CCN(Cc4ccccc4)CC3)c2cc1OC
- Ki [1]: > 100000 nM
- Kd [3]: 2850 nM

Compound: COc1cc2nc(NCCCN3CCN(C)CC3)nc(NC3CCN(Cc4ccccc4)CC3)c2cc1OC
- Ki [1]: 13300 nM
- Kd [3]: 191 nM

Compound: COc1cc2nc(NC3CCN(C)CC3)nc(NC3CCN(Cc4ccccc4)CC3)c2cc1OC
- Ki [1]: 6330 nM
- Kd [3]: 82 nM

Compound: COc1cc2nc(N(C)CCCN(C)C)nc(NC3CCN(Cc4ccccc4)CC3)c2cc1OC
- Ki [1]: 5820 nM
- Kd [3]: 1300 nM

Compound: COc1cc2nc(NCCN(C)C)nc(NC3CCN(Cc4ccccc4)CC3)c2cc1OC
- Ki [1]: 5260 nM
- Kd [3]: 237 nM

Compound: COc1cc2nc(NCCCN(C)C)nc(NC3CCN(C)CC3)c2cc1OC
- Ki [1]: 4170 nM
- Kd [3]: 1490 nM

Compound: COc1cc2nc(NCCCN(C)C)nc(NCCCNc3ccccc3)c2cc1OC
- Ki [1]: 48300 nM
- Kd [3]: 228 nM

Compound: COc1cc2nc(NCCCN(C)Cc3ccccc3)nc(NC3CCN(Cc4ccccc4)CC3)c2cc1OC
- Ki [1]: 9010 nM
- Kd [3]: 162 nM

Compound: COc1cc2nc(NCCCN(C)C)nc(NC3CCN(Cc4ccc(-c5ccccc5)cc4)CC3)c2cc1OC
- viability at 72 h, 1 µM [8]: 79.1%
- IC50 [4]: 170 nM
- Activity [9]: Dde
- IC50 [5]: 87 nM
- Activity [10]: Active
- Ki [1]: 1180 nM
- Ki [2]: 146 nM
- viability at 72 h, 1 µM [11]: 88.1%
- IC50 [6]: 290 nM
- inhibition [12]: Active
- Kd [3]: 81 nM
- IC50 [7]: 120 nM
- inhibition [13]: Active
- inhibition [14]: Active

Compound: COc1cc2nc(NCCCN3CCOCC3)nc(NC3CCN(Cc4ccccc4)CC3)c2cc1OC
- Ki [1]: 22600 nM
- Kd [3]: 369 nM

Compound: COc1cc2nc(NCCCN(C)C)nc(NC3CCN(Cc4ccc5ccccc5c4)CC3)c2cc1OC
- inhibition [15]: Active
- IC50 [16]: 910 nM
- Activity [17]: Active
- viability at 72 h, 1 µM [8]: 81.5%
- IC50 [4]: 300 nM
- Activity [9]: Dde
- IC50 [5]: 92 nM
- Activity [18]: Active
- Activity [10]: Active
- Ki [1]: 2930 nM
- Ki [2]: 156 nM
- viability at 72 h, 1 µM [11]: 96.5%
- Activity [19]: Active
- IC50 [6]: 210 nM
- inhibition [12]: Active
- IC50 [20]: 900 nM
- IC50 [21]: 690 nM
- IC50 [22]: 1230 nM
- Kd [3]: 75 nM
- IC50 [7]: 160 nM
- Activity [23]: Active
- viability at 72 h, 1.25 µM [24]: 96%
- inhibition [13]: Active
- IC50 [25]: 1210 nM
- IC50 [26]: 2280 nM
- inhibition [27]: Active
